Tested on: hiPSCs (WTC-11) differentiating to ameloblasts (iAM)
Test: AMBN expression (QRT-PCR) in hiPSC-derived ameloblast (iAM) differentiation, day 10 to day 16, factors removed or added
Assay type: cell-based, human
Conditions: for expression of AMBN when the factor is removed: factor removed independently from differentiation day 10 to day 16, compared to when all factors are present
Method: FIGS. 7A-7E: (FIG. 7A) Schematic of the 16-day differentiation protocol produced, which targets the identified signaling pathways utilizing growth factors and small molecules to transition through the ameloblast developmental trajectory. […] Each study was performed in triplicate, with error bars representing SEM. (FIG. 7C) The efficiency of each pathway activated in the differentiation from day 10 to day 16 were assessed by removing each agonist one at a time or adding FGFR2 mini binder to inhibit the FGFR2 pathway. AMBN expression was assessed in QRT-PCR, and each condition was performed in triplicate. Significance was determined by unpaired Student's t-test; ***p<0.001; ****p<0.0001; Graph error bars are the means±SEM.
To dissect which pathways were essential for the differentiation from day 10 to day 16, the process of elimination was used (FIG. 7C). […] It was hypothesized that the cells in culture secrete enough FGF ligands to saturate the receptors, and any exogenous ligands would have minimal effects. To test this hypothesis, a computationally designed protein was used, FGFR2 mini-binder (FGFR-mb), that specifically binds and inhibits the activity of the FGFR2 (Cao et al., 2022). […] This marks the importance of highly specific AI-designed mini-proteins in analyzing the requirement of signaling pathways in differentiation. It is plausible that temporal preciseness and high penetrance, combined with specificity of designed mini-binders to their targets may partially out-compete in the future genetic perturbations of signaling pathway in iPSC derived differentiation paradigms.
Briefly, hiPSCs (WTC-11 human induced pluripotent stem cells) (Coriell, #GM25256) were seeded on 12-well plates coated with growth factor-reduced Matrigel (Corning, #356231) and cultured in mTeSR1 stem cell medium (StemCell Technologies, #85850) until cells reach confluency with medium changes daily. On the first day of differentiation (deemed Day 0), stem cell media is replaced with ameloblast base media consisted of either EpiCult-C media (StemCell Technologies, #05630) or RPMI 1640 Medium (Thermo, #11875093) mixed with EpiLife (Thermo, #MEPI500CA) at 1:1 ratio, supplemented with 0.1× supplement S7 (Thermo, #S0175), 0.1 uM β-mercaptoethanol (BME) (Sigma, #M7522) and 400 um smoothened agonist (SAG) (Selleckchem, #S7779). At day 3 of differentiation 150 μM of bone morphogenic protein-4 (BMP4) (rndsystems, #314-BP-010) is continuously added daily till day 7. At day 8, the base media is supplemented with 1 uM of BMP-I inhibitor (LDN-193189) (Tocris, #6053), 5 uM of GSK3-Inhibitor (CHIR99021) (Selleckchem, #4423), 500 μM epidermal growth factor (EGF) (rndsystems, #236-EG) and 3.5 μM of Neurotrophin-4 (NT4) (rndsystems, #268-N4). The cultures were then harvested at day 10 at an oral epithelium stage, or extended to day 16 by adding 300 μM BMP4, and 800 nM transforming growth factor beta 1(TGFβ1) (rndsystems, #7754-BH) for the early ameloblast stage at day 16. For testing FGFR signaling requirement for the maturation process we added 50 nM purified FGFR-mb (see below) to the media at day 14 and harvested the samples at day 16 of the differentiation.
RNA was extracted using Trizol (Life Technologies) according to manufacturer's instructions. RNA samples were treated with Turbo DNase (Thermo Fisher Scientific) and quantified using Nanodrop ND-1000. Reverse transcription was performed using iScript cDNA Synthesis Kit (Bio-Rad). […]

Compound | expression of AMBN when the factor is removed | AMBN expression on adding bFGF (bFGF added to differentiation day 10 to day 16)
EGF: epidermal growth factor (NSDSECPLSHDGYCLHDGVCMYIEALDKYACNCVVGYIGERCQYRDLKWWELR; Epidermal growth factor; UniProt P01133 971-1023, looked up) | significantly reduced to less than half | –
Cc1cnc(-c2cnc(NCCNc3ccc(C#N)cn3)nc2-c2ccc(Cl)cc2Cl)[nH]1 [GSKi, 6-[[2-[[4-(2,4-dichlorophenyl)-5-(5-methyl-1H-imidazol-2-yl)-2-pyrimidinyl]amino]ethyl]amino]-3-pyridinecarbonitrile, reference compound] | completely abolished AMBN expression | –
CN[C@H]1CC[C@H](N(Cc2cccc(-c3ccncc3)c2)C(=O)c2sc3ccccc3c2Cl)CC1 [SAG, 3-chloro-N-[(1r,4r)-4-(methylamino)cyclohexyl]-N-[3-(pyridin-4-yl)benzyl]benzo[b]thiophene-2-carboxamide, reference compound] | significantly reduced to less than half | –
bFGF: exogenous FGF ligand added to the differentiation | – | no significant effect
TGFβ1: transforming growth factor beta 1 | significantly reduced to less than half | –
